Measurements published in patent US11052092B2, “N-{[2-(piperidin-1-yl)phenyl](phenyl)methyl}-2-(3-oxo-3,4-dihydro-2H-1,4-benzoxazin-7-yl)acetamide derivatives and related compounds as ROR-gamma modulators for treating autoimmune diseases” (Genfit, priority 2017, dated 2021).

Columns and labels:
human RORγt = biological target: T1, human RORγt (Homo sapiens, UniProt P51449); assay: RORE Luciferase/RORγt transactivation assay; type: cell-based; conditions: COS-7 cells transfected with human IL-17 promoter luciferase reporter and RORγt plasmid; 20 h with compound; read-out: IC50, RORγt activity inhibition
T1 construct: the full-length cDNA of human RORγt; expressed in transfected cells; host or cells: COS-7 (monkey kidney)
T1 sequence (P51449 1-497 isoform P51449-2): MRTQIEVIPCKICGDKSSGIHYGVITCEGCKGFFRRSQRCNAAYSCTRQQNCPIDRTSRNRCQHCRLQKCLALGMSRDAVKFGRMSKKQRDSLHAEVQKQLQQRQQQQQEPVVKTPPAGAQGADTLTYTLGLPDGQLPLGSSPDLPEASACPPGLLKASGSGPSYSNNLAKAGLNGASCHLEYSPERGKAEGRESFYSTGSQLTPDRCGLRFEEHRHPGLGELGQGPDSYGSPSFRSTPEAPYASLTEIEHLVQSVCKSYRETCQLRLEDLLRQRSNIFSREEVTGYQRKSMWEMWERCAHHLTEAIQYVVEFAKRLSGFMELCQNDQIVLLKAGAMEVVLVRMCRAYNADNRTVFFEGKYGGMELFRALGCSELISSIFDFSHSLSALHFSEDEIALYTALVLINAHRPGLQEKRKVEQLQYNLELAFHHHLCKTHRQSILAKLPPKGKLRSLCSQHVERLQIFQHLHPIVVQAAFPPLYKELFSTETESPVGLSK
Summary of the method: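 Transactivation read-out: luminescence (Steady-Glo, 30 min at room temperature) from COS-7 cells carrying a RORγt expression plasmid plus a 4.3 kb IL-17 promoter luciferase reporter. Compound exposure was in serum-free DMEM with 0.3% DMSO final. Reported values are IC50 (μM) and Emax (%).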

[1] = test system: Murine EL-4 lymphoma cell line overexpressing human RORγt; assay: IL-17 secretion from EL4 murine lymphoma; type: cell-based; conditions: Mus musculus; human RORγt-transfected EL4 cells, PMA (10 ng/mL) and ionomycin (1 μM), 24 h; read-out: IC50, IL-17 secretion inhibition
Summary of the method: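 EL-4 cells electroporated with hRORγt plasmid, seeded at 150000 cells/well and pretreated with compound for 24 h, then stimulated with PMA (10 ng/mL) plus ionomycin (1 μM final) with compound for a further 24 h at 37 °C. IL-17 in supernatant measured by HTRF or ELISA.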

Cc1ccc(C(NC(=O)Cc2ccc3c(c2)CC(=O)N3)c2ccc(C)o2)c(N2CCCCC2)c1 (centres unmarked) [Cpd. 24, N-{[4-methyl-2-(piperidin-1-yl)phenyl](5-methylfuran-2-yl)methyl}-2-(2-oxo-2,3-dihydro-1H-indol-5-yl)acetamide]
IC50 (human RORγt): 10 to 100 nM | IC50 [1]: < 100 nM
